# Experimental data reported in patent US20240400553A1, “AMINE BASED MATRIPTASE 2 INHIBITORS AND USES THEREOF” (Disc Medicine, Inc., priority 2023, published 2024).
# Target: T1, Human Recombinant Matriptase 2 (Homo sapiens, UniProt Q8IU80)
# T1 construct: made in house
# T1 sequence (Q8IU80 1-811): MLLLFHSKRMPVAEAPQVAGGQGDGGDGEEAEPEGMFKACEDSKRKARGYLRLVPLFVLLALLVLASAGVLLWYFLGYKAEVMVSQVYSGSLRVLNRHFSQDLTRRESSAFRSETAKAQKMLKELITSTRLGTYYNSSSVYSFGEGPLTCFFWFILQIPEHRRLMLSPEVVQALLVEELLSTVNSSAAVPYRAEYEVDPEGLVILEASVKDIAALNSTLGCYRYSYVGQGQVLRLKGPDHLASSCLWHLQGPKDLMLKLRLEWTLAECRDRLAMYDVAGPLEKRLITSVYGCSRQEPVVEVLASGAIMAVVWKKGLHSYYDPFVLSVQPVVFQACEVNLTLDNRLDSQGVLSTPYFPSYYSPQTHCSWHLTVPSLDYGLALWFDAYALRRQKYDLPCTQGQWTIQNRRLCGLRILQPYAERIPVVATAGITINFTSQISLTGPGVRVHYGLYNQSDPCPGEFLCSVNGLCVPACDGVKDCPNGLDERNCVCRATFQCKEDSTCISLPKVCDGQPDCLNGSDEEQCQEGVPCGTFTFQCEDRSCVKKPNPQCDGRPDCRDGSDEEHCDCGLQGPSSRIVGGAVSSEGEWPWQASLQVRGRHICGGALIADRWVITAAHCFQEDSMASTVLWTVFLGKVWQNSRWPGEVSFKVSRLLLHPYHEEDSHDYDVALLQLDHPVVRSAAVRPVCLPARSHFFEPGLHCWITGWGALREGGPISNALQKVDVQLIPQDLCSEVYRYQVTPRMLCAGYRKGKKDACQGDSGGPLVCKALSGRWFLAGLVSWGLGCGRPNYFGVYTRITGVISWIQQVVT
# Experiment: Matriptase 2 inhibition, fluorescence based assay (Method I)
# Type: biochemical
# Conditions: Table A; Ki of Matriptase-2; read-out: Mat-2 Ki
# Summary of the method: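 Fluorogenic readout (Ex 360/Em 480 nm) taken 60 min after adding 62 μM Boc-Gln-Ala-Arg-AMC, following 30-min enzyme–compound preincubation at 25 °C. Conditions: 3.5 nM in-house enzyme, pH 7.5 Tris/NaCl/gelatin buffer, 1% DMSO; percent inhibition versus concentration fitted by variable-slope sigmoidal regression.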
row,Structure (SMILES),Ki [nM]
1,"CC(C)(C)n1ccc(COC(=O)c2cc3ccc(CN)nc3n2Cc2cc(NS(=O)(=O)Cc3ccccc3)cc3ccccc23)n1 [Compound 106, (1-tert-butyl-1H-pyrazol-3-yl)methyl 6-(amino-methyl)-1-{[3-(phenyl-methanesulfonamido)-naphthalen-1-yl]methyl}-1H-pyrrolo[2,3-b]pyr-idine-2-carboxylate]",100 to 500
2,"CN1CC[C@H](COC(=O)c2cc3ccc(CN)nc3n2Cc2cc(NS(=O)(=O)Cc3ccccc3)cc3ccccc23)CC1=O (racemic) [Compound 30, rac-[(4R)-1-methyl-2-oxopiperidin-4-yl]meth-yl 6-(aminomethyl)-1-{[3-(phenylmethane-sulfonamido)naphthalen-1-yl]methyl}-1H-pyr-rolo[2,3-b]pyridine-2-carboxylate]",≤ 100
3,"CN1CCC(CCNC(=O)c2cc3ccc(CN)nc3n2Cc2cc(NS(=O)(=O)Cc3ccccc3)cc3ccccc23)CC1 [Compound 44, 6-(aminomethyl)-N-[2-(1-methylpiperidin-4-yl)ethyl]-1-{[3-(phenyl-methanesulfonamido)-naphthalen-1-yl]methyl}-1H-pyrrolo[2,3-b]pyr-idine-2-carboxamide]",≤ 100
4,"CC[C@@H](COC(=O)c1cc2ccc(CN)nc2n1Cc1cc(NS(=O)(=O)Cc2ccccc2)cc2ccccc12)N(C)C (racemic) [Compound 54, rac-(2R)-2-(dimethyl-amino)butyl 6-(amino-methyl)-1-{[3-(phenyl-methanesulfonamido)-naphthalen-1-yl]methyl}-1H-pyrrolo[2,3-b]pyr-idine-2-carboxylate]",≤ 100
5,"CN1CCC(CCNC(=O)c2cc3ccc(CN)nc3n2Cc2cc(NS(=O)(=O)Cc3ccsc3)cc3ccccc23)CC1 [Compound 162, 6-(aminomethyl)-N-[2-(1-methylpiperidin-4-yl)-ethyl]-1-({3-[(thiophen-3-yl)methanesulfon-amido]naphthalen-1-yl}-methyl)-1H-pyrrolo[2,3-b]pyridine-2-carboxamide]",≤ 100
6,"CC(C)N(C)CCOC(=O)c1cc2ccc(CN)nc2n1Cc1cc(NS(=O)(=O)Cc2ccccc2)cc2ccccc12 [Compound 52, 2-[methyl(propan-2-yl)-amino]ethyl 6-(amino-methyl)-1-{[3-(phenyl-methanesulfonamido)-naphthalen-1-yl]methyl}-1H-pyrrolo[2,3-b]pyr-idine-2-carboxylate]",≤ 100
7,"CN1CCN(CCOC(=O)c2cc3ccc(CN)nc3n2Cc2cc(NS(=O)(=O)Cc3ccsc3)cc3ccccc23)CC1 [Compound 161, 2-(4-methylpiperazin-1-yl)ethyl 6-(aminometh-yl)-1-({3-[(thiophen-3-yl)methanesulfonamido]-naphthalen-1-yl}meth-yl)-1H-pyrrolo[2,3-b]-pyridine-2-carboxylate]",≤ 100
8,"CC(=O)N(C)CCOC(=O)c1cc2ccc(CN)nc2n1Cc1cc(NS(=O)(=O)Cc2c(C)cccc2C)cc2ccccc12 [Compound 197, 2-(N-methylacetamido)-ethyl 6-(aminomethyl)-1-({3-[(2,6-dimethylphen-yl)methanesulfonamido]-naphthalen-1-yl}methyl)-1H-pyrrolo[2,3-b]pyr-idine-2-carboxylate]",≤ 100
9,"CN(C)C(=O)OCCOC(=O)c1cc2ccc(CN)nc2n1Cc1cc(NS(=O)(=O)Cc2ccccc2)cc2ccccc12 [Compound 80, 2-[(dimethylcarbamoyl)-oxy]ethyl 6-(aminometh-yl)-1-{[3-phenylmethane-sulfonamido)naphthalen-1-yl]methyl}-1H-pyr-rolo[2,3-b]pyridine-2-carboxylate]",≤ 100
10,"CC(C)COC(=O)c1cc2ccc(CN)nc2n1Cc1cc(NS(=O)(=O)Cc2ccccc2)cc2ccccc12 [Compound 121, 2-methylpropyl 6-(aminomethyl)-1-{[3-(phenylmethanesulfon-amido)naphthalen-1-yl]-methyl}-1H-pyrrolo[2,3-b]pyridine-2-carboxylate]",500 to 3000
11,CNC(=O)c1cc2ccc(CN)nc2n1Cc1cc(NS(=O)(=O)Cc2ccccc2)cc2ccccc12 [Compound 66],≤ 100
12,"NCCOC(=O)c1cc2ccc(CN)nc2n1Cc1cc(NS(=O)(=O)Cc2ccccc2)cc2ccccc12 [Compound 91, 2-aminoethyl 6-(amino-methyl)-1-{[3-(phenyl-methanesulfonamido)naphthalen-1-yl]methyl}-1H-pyrrolo[2,3-b]pyr-idine-2-carboxylate]",100 to 500
13,"CN1CCC(CCOC(=O)c2cc3ccc(CN)nc3n2Cc2cc(NS(=O)(=O)Cc3cccs3)cc3ccccc23)CC1 [Compound 150, 2-(1-methylpiperidin-4-yl)ethyl 6-(aminometh-yl)-1-({3-[(thiophen-2-yl)methanesulfonamido]-naphthalen-1-yl}methyl)-1H-pyrrolo[2,3-b]pyr-idine-2-carboxylate]",≤ 100

# Same assay, conditions: Table A; Ki of Matriptase-2 given as class symbols; read-out: Mat-2 Ki
row,Structure (SMILES),Ki [nM]
1,"CC(C)[C@H]1CCN(C(=O)Nc2cc(Cn3c(C(=O)O)cc4ccc(CN)nc43)c3ccccc3c2)C1 (racemic) [Compound 303, rac-6-(aminomethyl)-1-[(3-{[(3R)-3-(propan-2-yl)pyrrolidine-1-carbon-yl]amino}naphthalen-1-yl)methyl]-1H-pyrrolo-[2,3-b]pyridine-2-car-boxylic acid]",500 to 3000
2,"CN1CCC[C@H]1COC(=O)Nc1cc(Cn2c(C(=O)O)cc3ccc(CN)nc32)c2ccccc2c1 [Compound 334, 6-(aminomethyl)-1-({3-[({[(2S)-1-methylpyr-rolidin-2-yl]methoxy}-carbonyl)amino]naph-thalen-1-yl}methyl)-1H-pyrrolo[2,3-b]pyr-idine-2-carboxylic acid]",100 to 500
3,"NCc1ccc2cc(C(=O)O)n(Cc3cc(CS(=O)(=O)Cc4ccccc4)cc4ccccc34)c2n1 [Compound 252, 6-(aminomethyl)-1-{[3-(phenylmethanesulfon-ylmethyl)naphthalen-1-yl]methyl}-1H-pyrrolo-[2,3-b]pyridine-2-car-boxylic acid]",500 to 3000
4,"NCc1ccc2cc(C(=O)O)n(Cc3cc(NS(=O)(=O)CCCN4CCCC4)cc4ccccc34)c2n1 [Compound 232, 6-(aminomethyl)-1-({3-[3-(pyrrolidin-1-yl)-propanesulfonamido]-naphthalen-1-yl}methyl)-1H-pyrrolo[2,3-b]pyr-idine-2-carboxylic acid]",100 to 500
5,C[C@H]1CN(C(=O)Nc2cc(Cn3c(C(=O)O)cc4ccc(CN)nc43)c3ccccc3c2)CCN1 [Compound 305],500 to 3000

# Same assay, conditions: Table B; Human Recombinant Matriptase 2, 3.5 nM enzyme, 62 μM substrate, 30 mins preincubation; read-out: Mean Ki
row,Structure (SMILES),Ki [nM]
1,CN1CCC(COC(=O)c2cc3ccc(CN)nc3n2Cc2cc(NS(=O)(=O)Cc3ccccc3)cc3c2CCCC3)CC1=O (centres unmarked) [Compound 2.19],≤ 100
2,CN1CCC(COC(=O)c2cc3ccc(CN)nc3n2Cc2cc(NS(=O)(=O)Cc3ccsc3)cc3ccccc23)CCC1=O (centres unmarked) [Compound 2.17],≤ 100
3,CN1CCC(COC(=O)c2cc3ccc(CN)nc3n2Cc2cc(NS(=O)(=O)Cc3ccccc3)cc3ccccc23)CCC1=O (centres unmarked) [Compound 2.18],≤ 100
4,CNC12CC(COC(=O)c3cc4ccc(CN)nc4n3Cc3cc(NS(=O)(=O)Cc4c(C)cccc4C)cc4c3CCCC4)(C1)C2 [Compound 2.38],≤ 100
5,CN1CC(CCOC(=O)c2cc3ccc(CN)nc3n2Cc2cc(NS(=O)(=O)Cc3ccsc3)cc3ccccc23)CC1=O (centres unmarked) [Compound 2.6],≤ 100
